Like-named read-outs stand apart in the source and are kept apart here.

Test [1] concerns the target T1, HiBiT-KRAS^G12D (Homo sapiens, UniProt P01116, G12D).
T1 construct: HiBiT-tagged
Also noted: HiBiT-KRAS degradation, split nanoluciferase lytic detection. The settings on record: degrader. As to the method:
This formula was derived from the Growth Inhibition (GI) calculation used in the National Cancer Institute’s NCI-60 high-throughput screen. KRAS Degradation Assays via Detection of Split Nanoluciferase (HiBiT) To assess PROTAC-mediated degradation of HiBiT-tagged KRAS constructs, cells were seeded at 25 000 cells per well in culture medium into white bottom opaque 96-well plates (Perkin Elmer cat no. 5680). Plates were incubated at 37 °C, 5% CO2 in a humidified incubator over night to allow the cells to adhere. Test compounds (10 mM stock in DMSO) were added at logarithmic dose series using the HP Digital Dispenser D300 (Tecan), normalizing for added DMSO. […] Following incubation, 100 µL per well Promega Nano-Glo HiBiT lytic detection reagent mix (Promega Nano-Glo HiBiT Lytic Detection System #N3050), prepared according to the manufacturer´s instructions in the kit, were added. To allow for adequate cell lysis, plates were incubated on an orbital shaker for 15 min. and further incubated 30 min. at room temperature. Upon completion of cell lysis, luminescence was measured using an Envision plate reader using the Ultrasensitive Luminescence Protocol for 96-well plates. Luminescence levels were normalized by the values obtained with DMSO-treated samples and plotted as percent of DMSO control. DC50 values were computed using a three parametric logistic model. Dmax values represent the maximal extent of degradation observed and are stated as percent of control treatments.

In test [2] the target is KRAS^G12V (Homo sapiens, UniProt P01116, G12V). The test can be described thus: cell-based. On the set-up: endogenous; KRAS degradation by capillary electrophoresis immunodetection. The settings on record: SW-620; read-out: Dmax 24 h SW620 [%]. The method, then: (§1) Protein Detection by Capillary Electrophoresis Cells (50 000) were seeded the day before treatment into 96-well clear-flat bottom plates and incubated overnight (37 °C, humidified tissue culture incubator, 5% CO2). Compounds were added from DMSO stock solution using a digital dispenser and cells are incubated at 37 °C as specified (24 hours for KRAS degradation, 6 hours for determination of pERK levels). At the end of the incubation, medium was removed, cells washed with ice cold PBS, PBS removed and 50 µL lysis buffer (Meso Scale Discovery #R60TX-2) supplemented with 1:100 protease inhibitor solution, 1:100 phosphatase inhibitor I, 1:100 phosphatase inhibitor II (Meso Scale Discovery #R70AA-1), 0.5 µL/mL Benzonase (Novagen #70664-3) and 10 mM dithiothreitol added to each well. Plates with lysis buffer were immediately transferred to -80 °C freezer for at least 2 hours and then thawed on ice. Lysates were transferred to a 96 well V-bottom plate and insoluble debris was pelleted by centrifugation for 20 min. at 4 000 rpm. 40 µL of the supernatant were transferred to a fresh Eppendorf PCR plate. Analysis of protein levels was conducted using the Wes System, ProteinSimple (https://www.bio-techne.com/) as specified by the manufacturer. Briefly, Wes Master Mix (12-230 kDa WES Separation Module, 8 × 25 capillary cartridges, ProteinSimple #SM-W004) and molecular weight markers were prepared as specified in the manufacturer’s recommendations. To detect primary antibodies, anti-rabbit (Protein Simple #DM-001) or anti-mouse (Protein Simple #DM-002) detection modules were used. 7.2 µL lysate + 1.8 µL master mix were combined and heated to 95 °C for 5 min. […] Next, we set out to test the ability of a single pan-KRAS degrading molecule, compound 4, to selectively suppress oncogenic signaling and proliferation in cancer cell lines driven by diverse KRAS mutants. To this end, we first confirmed degradation of KRAS by compound 4 in KRAS-dependent (GP2d, SW620 and NCI-H358 expressing KRAS^G12D, - G12V or -G12C, respectively) as well as in KRAS independent (A-375, HEK293) cell lines (Fig. 3A, fig. S4A). […] Both inhibition and degradation repressed the established markers of MAPK signaling pERK (fig. S4B-D) and DUSP6 (Fig. 3B, fig. S4E) in KRAS dependent cell lines. […] Neither degradation nor inhibition had appreciable antiproliferative effects in the KRAS independent cell lines A-375 and HEK293 (Fig. 3C, fig. S4F).

The target in test [3] is T2, KRAS^G12D (Homo sapiens, UniProt P01116, G12D). On the set-up: endogenous; KRAS degradation by capillary electrophoresis immunodetection. To be noted: degrader; read-out: DC50 24 h GP5d. As to the method: Protein Detection by Capillary Electrophoresis Cells (50 000) were seeded the day before treatment into 96-well clear-flat bottom plates and incubated overnight (37 °C, humidified tissue culture incubator, 5% CO2). Compounds were added from DMSO stock solution using a digital dispenser and cells are incubated at 37 °C as specified (24 hours for KRAS degradation, 6 hours for determination of pERK levels). At the end of the incubation, medium was removed, cells washed with ice cold PBS, PBS removed and 50 µL lysis buffer (Meso Scale Discovery #R60TX-2) supplemented with 1:100 protease inhibitor solution, 1:100 phosphatase inhibitor I, 1:100 phosphatase inhibitor II (Meso Scale Discovery #R70AA-1), 0.5 µL/mL Benzonase (Novagen #70664-3) and 10 mM dithiothreitol added to each well. Plates with lysis buffer were immediately transferred to -80 °C freezer for at least 2 hours and then thawed on ice. Lysates were transferred to a 96 well V-bottom plate and insoluble debris was pelleted by centrifugation for 20 min. at 4 000 rpm. 40 µL of the supernatant were transferred to a fresh Eppendorf PCR plate. Analysis of protein levels was conducted using the Wes System, ProteinSimple (https://www.bio-techne.com/) as specified by the manufacturer. Briefly, Wes Master Mix (12-230 kDa WES Separation Module, 8 × 25 capillary cartridges, ProteinSimple #SM-W004) and molecular weight markers were prepared as specified in the manufacturer’s recommendations. To detect primary antibodies, anti-rabbit (Protein Simple #DM-001) or anti-mouse (Protein Simple #DM-002) detection modules were used. 7.2 µL lysate + 1.8 µL master mix were combined and heated to 95 °C for 5 min.

For test [4], the target named is KRAS^G12C (Homo sapiens, UniProt P01116, G12C). The test can be described thus: cell-based. Also noted: endogenous; KRAS degradation by capillary electrophoresis immunodetection. The settings on record: NCI-H358; read-out: Dmax 24 h NCI-H358 [%]. The method, then:
as §1

Test [5] addresses T2, KRAS^G12D. The test can be described thus: cell-based. On the set-up: endogenous; KRAS degradation by capillary electrophoresis immunodetection. To be noted: GP2d; read-out: Dmax 24 h GP2d [%]. The method, then:
as §1

KRAS^G12C, sequence (P01116 whole entry G12C): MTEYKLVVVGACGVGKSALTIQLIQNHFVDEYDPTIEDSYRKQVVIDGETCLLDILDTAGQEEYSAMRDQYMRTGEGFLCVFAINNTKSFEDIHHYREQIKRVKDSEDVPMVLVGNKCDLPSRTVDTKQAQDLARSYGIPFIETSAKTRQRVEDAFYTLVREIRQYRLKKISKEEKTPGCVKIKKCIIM
KRAS^G12V, sequence (P01116 whole entry G12V): as the sequence (P01116 whole entry G12C) above, with C12V counted along it
T2 sequence (P01116 whole entry G12D): as the sequence (P01116 whole entry G12C) above, with C12D counted along it
T1 sequence (P01116 whole entry G12D): as the sequence (P01116 whole entry G12C) above, with C12D counted along it

`Cc1ncsc1-c1ccc(CNC(=O)[C@@H]2C[C@@H](O)CN2C(=O)[C@@H](NC(=O)COCCCN2CCCN(c3nccc(-c4noc([C@@]5(C)CCCc6sc(N)c(C#N)c65)n4)n3)[C@@H](C)C2)C(C)(C)C)cc1` [compound 2]: the values for the DC50 in test [1] (read-out: DC50 24 h GP5d HiBiT) and in test [3] were 494 nM and 607 nM, respectively. For the same compound, the Dmax in test [2] worked out at 100%.

With `Cc1ncsc1-c1ccc(CNC(=O)[C@@H]2C[C@@H](O)CN2C(=O)[C@@H](NC(=O)CCCCCN2CCCN(c3nccc(-c4noc([C@@]5(C)CCCc6sc(N)c(C#N)c65)n4)n3)[C@@H](C)C2)C(C)(C)C)cc1` [compound 3], the DC50 was found to be 68.1 nM in test [1] (read-out: DC50 24 h GP5d HiBiT) and 31.8 nM in test [3]. Further, the results for the Dmax in test [4], in test [5] and in test [2] were 81%, 96% and 88%, respectively.

With `Cc1ncsc1-c1ccc(CNC(=O)[C@@H]2C[C@@H](O)CN2C(=O)[C@@H](c2cc(OCCCCN3CCCN(c4nccc(-c5noc([C@@]6(C)CCCc7sc(N)c(C#N)c76)n5)n4)[C@@H](C)C3)no2)C(C)C)cc1` [compound 4], the DC50 in test [1] (10% human serum, read-out: DC50 24 h GP5d HiBiT 10% human serum) is 1.9 nM; in test [1] (10% mouse serum, read-out: DC50 24 h GP5d HiBiT 10% mouse serum), 33.1 nM; in test [1] (read-out: DC50 24 h GP5d HiBiT) it was 1.4 nM; in test [3], 0.9 nM. For the same compound, the Dmax in test [4] amounted to 86%; in test [5], 96%; in test [2], 89%.

Regarding `Cc1ncsc1-c1ccc(CNC(=O)C2CC(O)CN2C(=O)C(c2cc(OCCCCN3CCCN(c4nccc(-c5noc(C6(C)CCCc7sc(N)c(C#N)c76)n5)n4)C(C)C3)no2)C(C)C)cc1` (stereo not shown) [compound 5], the Dmax in test [4] was below 25%; in test [5], below 15%; in test [2], below 15%.

Regarding `Cc1ncsc1-c1ccc([C@H](CO)NC(=O)[C@@H]2C[C@@H](O)CN2C(=O)[C@H](C(C)C)n2cc(OCCCCN3CCCN(c4nccc(-c5noc([C@@]6(C)CCCc7sc(N)c(C#N)c76)n5)n4)[C@@H](C)C3)nn2)cc1` [compound 7, ACBI3], the DC50 in test [1] (read-out: DC50 24 h GP5d HiBiT) was 0.7 nM; in test [3], 2.1 nM. For the same compound, the Dmax in test [5] came out at 99%; in test [2], 83%.

The values are drawn from paper doi:10.1101/2023.10.24.563163v2, “Targeting cancer with small molecule pan-KRAS degraders” (biorxiv, 2024).
